What was measured:
Test in all cases: relative viability vs DMSO control (72 h) (fraction); higher = more viable cells
SW982 = tested on: SW982
Summary of the method: (§1)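 A 5 µM positive control and 0.1% DMSO vehicle ran alongside sarcoma cell lines seeded in 384-well plates to reach 80–90% confluence. Serially diluted compound, 2.5 µl from source plates of 10 mM to 0.0002 mM, was added after 24 h, and the plates were held 72 h at 37 °C, 5% CO2. Relative viability was worked out from ATPLite readings as percent growth averaged over up to triplicate wells. The values were rescaled so that 1 is full and 0 is none.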

VA-ES-BJ = tested on: VA-ES-BJ
Summary of the method: as §1

KHOS-240S = tested on: KHOS-240S
Summary of the method: as §1

MES-SA = tested on: MES-SA
Summary of the method: as §1

RD = tested on: RD
Summary of the method: as §1

SK-LMS-1 = tested on: SK-LMS-1
Summary of the method: as §1

SW1353 = tested on: SW1353
Summary of the method: as §1

HS729 = tested on: HS729
Summary of the method: as §1

A204 = tested on: A204
Summary of the method: as §1

SK-ES-1 = tested on: SK-ES-1
Summary of the method: as §1

SW872 = tested on: SW872
Summary of the method: as §1

G401 = tested on: G401
Summary of the method: as §1

Cc1cccc(-c2nn3c(c2-c2ccnc4ccc(C(N)=O)cc24)CCC3)n1 [Galunisertib]
Details	relative viability
A204, 0.00017 µM	1.01
A204, 0.00051 µM	1.04
A204, 0.00152 µM	0.99
A204, 0.00457 µM	1.03
A204, 0.01372 µM	0.984
A204, 0.04115 µM	1
A204, 0.1235 µM	1.01
A204, 0.3704 µM	1.02
A204, 1.111 µM	0.996
A204, 3.333 µM	0.996
A204, 10 µM	0.936
G401, 0.00017 µM	0.977
G401, 0.00051 µM	0.93
G401, 0.00152 µM	1.01
G401, 0.00457 µM	0.959
G401, 0.01372 µM	0.974
G401, 0.04115 µM	0.964
G401, 0.1235 µM	0.984
G401, 0.3704 µM	0.971
G401, 1.111 µM	0.965
G401, 3.333 µM	0.9721
G401, 10 µM	0.979
HS729, 0.00017 µM	0.993
HS729, 0.00051 µM	0.933
HS729, 0.00152 µM	0.948
HS729, 0.00457 µM	0.897
HS729, 0.01372 µM	0.901
HS729, 0.04115 µM	0.892
HS729, 0.1235 µM	0.898
HS729, 0.3704 µM	0.836
HS729, 1.111 µM	0.794
HS729, 3.333 µM	0.756
HS729, 10 µM	0.749
KHOS-240S, 0.00017 µM	1.06
KHOS-240S, 0.00051 µM	1.07
KHOS-240S, 0.00152 µM	1.06
KHOS-240S, 0.00457 µM	1.06
KHOS-240S, 0.01372 µM	1.04
KHOS-240S, 0.04115 µM	1.01
KHOS-240S, 0.1235 µM	0.996
KHOS-240S, 0.3704 µM	0.971
KHOS-240S, 1.111 µM	0.987
KHOS-240S, 3.333 µM	0.966
KHOS-240S, 10 µM	0.929
MES-SA, 0.00017 µM	0.925
MES-SA, 0.00051 µM	0.922
MES-SA, 0.00152 µM	0.916
MES-SA, 0.00457 µM	0.897
MES-SA, 0.01372 µM	0.911
MES-SA, 0.04115 µM	0.91
MES-SA, 0.1235 µM	0.9002
MES-SA, 0.3704 µM	0.891
MES-SA, 1.111 µM	0.888
MES-SA, 3.333 µM	0.863
MES-SA, 10 µM	0.873
RD, 0.00017 µM	1.06
RD, 0.00051 µM	1.07
RD, 0.00152 µM	1.079
RD, 0.00457 µM	1.095
RD, 0.01372 µM	1.081
RD, 0.04115 µM	1.09
RD, 0.1235 µM	1.071
RD, 0.3704 µM	1.05
RD, 1.111 µM	1.08
RD, 3.333 µM	1.12
RD, 10 µM	1.13
SK-ES-1, 0.00017 µM	1.02
SK-ES-1, 0.00051 µM	1.03
SK-ES-1, 0.00152 µM	0.998
SK-ES-1, 0.00457 µM	0.978
SK-ES-1, 0.01372 µM	1.06
SK-ES-1, 0.04115 µM	1.02
SK-ES-1, 0.1235 µM	0.946
SK-ES-1, 0.3704 µM	0.996
SK-ES-1, 1.111 µM	0.974
SK-ES-1, 3.333 µM	0.96
SK-ES-1, 10 µM	0.959
SK-LMS-1, 0.00017 µM	1.04
SK-LMS-1, 0.00051 µM	1
SK-LMS-1, 0.00152 µM	1.01
SK-LMS-1, 0.00457 µM	0.982
SK-LMS-1, 0.01372 µM	1.01
SK-LMS-1, 0.04115 µM	0.982
SK-LMS-1, 0.1235 µM	1.01
SK-LMS-1, 0.3704 µM	1
SK-LMS-1, 1.111 µM	1
SK-LMS-1, 3.333 µM	0.953
SK-LMS-1, 10 µM	0.965
SW872, 0.00017 µM	1.05
SW872, 0.00051 µM	1.05
SW872, 0.00152 µM	1
SW872, 0.00457 µM	1.02
SW872, 0.01372 µM	0.989
SW872, 0.04115 µM	0.991
SW872, 0.1235 µM	0.956
SW872, 0.3704 µM	0.96
SW872, 1.111 µM	1
SW872, 3.333 µM	1.01
SW872, 10 µM	1
SW982, 0.00017 µM	1
SW982, 0.00051 µM	1.02
SW982, 0.00152 µM	0.965
SW982, 0.00457 µM	1
SW982, 0.01372 µM	0.999
SW982, 0.04115 µM	0.98
SW982, 0.1235 µM	0.974
SW982, 0.3704 µM	0.977
SW982, 1.111 µM	0.988
SW982, 3.333 µM	0.98
SW982, 10 µM	1.05
SW1353, 0.00017 µM	1.01
SW1353, 0.00051 µM	0.967
SW1353, 0.00152 µM	0.991
SW1353, 0.00457 µM	0.954
SW1353, 0.01372 µM	0.962
SW1353, 0.04115 µM	0.926
SW1353, 0.1235 µM	0.9202
SW1353, 0.3704 µM	0.959
SW1353, 1.111 µM	0.967
SW1353, 3.333 µM	1
SW1353, 10 µM	0.976
VA-ES-BJ, 0.00017 µM	1.04
VA-ES-BJ, 0.00051 µM	1
VA-ES-BJ, 0.00152 µM	1.03
VA-ES-BJ, 0.00457 µM	0.9974
VA-ES-BJ, 0.01372 µM	0.983
VA-ES-BJ, 0.04115 µM	0.986
VA-ES-BJ, 0.1235 µM	1.01
VA-ES-BJ, 0.3704 µM	1.01
VA-ES-BJ, 1.111 µM	1.07
VA-ES-BJ, 3.333 µM	1.08
VA-ES-BJ, 10 µM	1.11

CN1CC[C@@H](NC(=O)Nc2ccc(C#N)cc2)C[C@@H]1c1nc2ccccc2[nH]1 [Glasdegib]
Details	relative viability
A204, 0.00017 µM	1.07
A204, 0.00051 µM	1.074
A204, 0.00152 µM	1.09
A204, 0.00457 µM	1.06
A204, 0.01372 µM	1.09
A204, 0.04115 µM	1.06
A204, 0.1235 µM	1.064
A204, 0.3704 µM	1.05
A204, 1.111 µM	1.04
A204, 3.333 µM	1.02
A204, 10 µM	0.975
G401, 0.00017 µM	1.04
G401, 0.00051 µM	1.03
G401, 0.00152 µM	1.02
G401, 0.00457 µM	1.02
G401, 0.01372 µM	1.03
G401, 0.04115 µM	1.03
G401, 0.1235 µM	1.02
G401, 0.3704 µM	0.986
G401, 1.111 µM	0.997
G401, 3.333 µM	0.949
G401, 10 µM	0.934
HS729, 0.00017 µM	1.07
HS729, 0.00051 µM	1.02
HS729, 0.00152 µM	1.05
HS729, 0.00457 µM	0.993
HS729, 0.01372 µM	1.02
HS729, 0.04115 µM	1.05
HS729, 0.1235 µM	1.03
HS729, 0.3704 µM	0.984
HS729, 1.111 µM	1.03
HS729, 3.333 µM	0.993
HS729, 10 µM	1.03
KHOS-240S, 0.00017 µM	1.04
KHOS-240S, 0.00051 µM	1.061
KHOS-240S, 0.00152 µM	1.08
KHOS-240S, 0.00457 µM	1.08
KHOS-240S, 0.01372 µM	1.06
KHOS-240S, 0.04115 µM	1.06
KHOS-240S, 0.1235 µM	1.05
KHOS-240S, 0.3704 µM	1.065
KHOS-240S, 1.111 µM	1.05
KHOS-240S, 3.333 µM	1.05
KHOS-240S, 10 µM	1.03
MES-SA, 0.00017 µM	0.945
MES-SA, 0.00051 µM	0.956
MES-SA, 0.00152 µM	0.976
MES-SA, 0.00457 µM	0.956
MES-SA, 0.01372 µM	0.952
MES-SA, 0.04115 µM	0.915
MES-SA, 0.1235 µM	0.938
MES-SA, 0.3704 µM	0.919
MES-SA, 1.111 µM	0.926
MES-SA, 3.333 µM	0.935
MES-SA, 10 µM	0.85
RD, 0.00017 µM	1.02
RD, 0.00051 µM	1.03
RD, 0.00152 µM	1.05
RD, 0.00457 µM	1.04
RD, 0.01372 µM	1.02
RD, 0.04115 µM	0.99
RD, 0.1235 µM	0.988
RD, 0.3704 µM	0.983
RD, 1.111 µM	1.02
RD, 3.333 µM	1
RD, 10 µM	1.06
SK-ES-1, 0.00017 µM	1
SK-ES-1, 0.00051 µM	1.03
SK-ES-1, 0.00152 µM	1
SK-ES-1, 0.00457 µM	1.02
SK-ES-1, 0.01372 µM	1.01
SK-ES-1, 0.04115 µM	0.965
SK-ES-1, 0.1235 µM	0.944
SK-ES-1, 0.3704 µM	0.975
SK-ES-1, 1.111 µM	0.944
SK-ES-1, 3.333 µM	0.77
SK-ES-1, 10 µM	0.696
SK-LMS-1, 0.00017 µM	1.08
SK-LMS-1, 0.00051 µM	1.09
SK-LMS-1, 0.00152 µM	1.111
SK-LMS-1, 0.00457 µM	1.07
SK-LMS-1, 0.01372 µM	1.14
SK-LMS-1, 0.04115 µM	1.11
SK-LMS-1, 0.1235 µM	1.09
SK-LMS-1, 0.3704 µM	1.06
SK-LMS-1, 1.111 µM	1.07
SK-LMS-1, 3.333 µM	1.02
SK-LMS-1, 10 µM	1.03
SW872, 0.00017 µM	1.08
SW872, 0.00051 µM	1.07
SW872, 0.00152 µM	1.08
SW872, 0.00457 µM	1.06
SW872, 0.01372 µM	1.06
SW872, 0.04115 µM	1.05
SW872, 0.1235 µM	1.06
SW872, 0.3704 µM	1.066
SW872, 1.111 µM	1.05
SW872, 3.333 µM	1.06
SW872, 10 µM	1.06
SW982, 0.00017 µM	0.988
SW982, 0.00051 µM	0.993
SW982, 0.00152 µM	1
SW982, 0.00457 µM	1.03
SW982, 0.01372 µM	1
SW982, 0.04115 µM	0.971
SW982, 0.1235 µM	1.004
SW982, 0.3704 µM	0.985
SW982, 1.111 µM	1.02
SW982, 3.333 µM	1.02
SW982, 10 µM	0.992
SW1353, 0.00017 µM	1.1
SW1353, 0.00051 µM	1.1
SW1353, 0.00152 µM	1.08
SW1353, 0.00457 µM	1.1
SW1353, 0.01372 µM	1.09
SW1353, 0.04115 µM	1.07
SW1353, 0.1235 µM	1.07
SW1353, 0.3704 µM	1.07
SW1353, 1.111 µM	1.1
SW1353, 3.333 µM	1.09
SW1353, 10 µM	1.04
VA-ES-BJ, 0.00017 µM	1.07
VA-ES-BJ, 0.00051 µM	1.07
VA-ES-BJ, 0.00152 µM	1.06
VA-ES-BJ, 0.00457 µM	1.068
VA-ES-BJ, 0.01372 µM	1.07
VA-ES-BJ, 0.04115 µM	1.06
VA-ES-BJ, 0.1235 µM	1.05
VA-ES-BJ, 0.3704 µM	1.04
VA-ES-BJ, 1.111 µM	1.01
VA-ES-BJ, 3.333 µM	1.08
VA-ES-BJ, 10 µM	1.06
